Assay results reported in PubChem BioAssay AID1963962 (Molecular Pharmacology Branch, DTP, NCI, 2024).

Tested on: 967376-340-R-J2-PDC multicell spheroid viability
Test: Anticancer human tumor 967376-340-R-J2-PDC patient-derived colon adenocarcinoma cell line growth inhibition [PI3K]
Conditions: for IC50: curve of first compound; for viability, T/C: stronger effect = lower value
Procedure, shortened: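 Targeted small molecules plus PI3K inhibitors, half-log dose series from Cmax (default top 10 microM), were applied to heterotypic spheroids of cancer cells with HUVEC and MSCs. Viability indicated growth inhibition.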
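Note: spheroids exposed to agents for 7 days before read-out.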
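Throughout, for viability, T/C: luminescence used as surrogate of cell viability.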

In the case of CNC(=O)c1ccc(N2C(=S)N(c3ccc(C#N)c(C(F)(F)F)c3)C(=O)C2(C)C)cc1F + CC(Nc1ncnc2nc[nH]c12)c1cc2cccc(Cl)c2c(=O)n1-c1ccccc1, the IC50 (second compound 0.0316 µM) is reported as > 10000 nM, the IC50 (second compound 0.1 µM) is reported as > 10000 nM and the IC50 (second compound 0.316 µM) is reported as > 10000 nM. The IC50 (second compound 1 µM) was > 10000 nM, the IC50 (second compound 3.16 µM) was > 10000 nM and the IC50 (second compound 10 µM) was > 10000 nM. For the same compound, the viability, T/C (second compound 0.0316 µM, first compound 0.0316 µM) was 140%, the viability, T/C (second compound 0.0316 µM, first compound 0.1 µM) was 88.7% and the viability, T/C (second compound 0.0316 µM, first compound 0.316 µM) was 92%. For the same compound, the viability, T/C (second compound 0.0316 µM, first compound 1 µM) was 101%, the viability, T/C (second compound 0.0316 µM, first compound 3.16 µM) was 134% and the viability, T/C (second compound 0.0316 µM, first compound 10 µM) was 88.3%. For the same compound, the viability, T/C (second compound 0.1 µM, first compound 0.0316 µM) was 109%, the viability, T/C (second compound 0.1 µM, first compound 0.1 µM) was 109% and the viability, T/C (second compound 0.1 µM, first compound 0.316 µM) was 94.2%. The viability, T/C (second compound 0.1 µM, first compound 1 µM) was 104%, the viability, T/C (second compound 0.1 µM, first compound 3.16 µM) was 99.3% and the viability, T/C (second compound 0.1 µM, first compound 10 µM) was 73.1%. The viability, T/C (second compound 0.316 µM, first compound 0.0316 µM) was 89.6%, the viability, T/C (second compound 0.316 µM, first compound 0.1 µM) was 104% and the viability, T/C (second compound 0.316 µM, first compound 0.316 µM) was 82.2%. It also gave a viability, T/C (second compound 0.316 µM, first compound 1 µM) of 92%, a viability, T/C (second compound 0.316 µM, first compound 3.16 µM) of 106% and a viability, T/C (second compound 0.316 µM, first compound 10 µM) of 105%. For the same compound, the viability, T/C (second compound 1 µM, first compound 0.0316 µM) was 81.4%, the viability, T/C (second compound 1 µM, first compound 0.1 µM) was 80.3% and the viability, T/C (second compound 1 µM, first compound 0.316 µM) was 72.3%. The viability, T/C (second compound 1 µM, first compound 1 µM) was 86.1%, the viability, T/C (second compound 1 µM, first compound 3.16 µM) was 113% and the viability, T/C (second compound 1 µM, first compound 10 µM) was 88.5%. It also gave a viability, T/C (second compound 3.16 µM, first compound 0.0316 µM) of 78.5%, a viability, T/C (second compound 3.16 µM, first compound 0.1 µM) of 89% and a viability, T/C (second compound 3.16 µM, first compound 0.316 µM) of 82%. It also gave a viability, T/C (second compound 3.16 µM, first compound 1 µM) of 80.1%, a viability, T/C (second compound 3.16 µM, first compound 3.16 µM) of 102% and a viability, T/C (second compound 3.16 µM, first compound 10 µM) of 87.5%. For the same compound, the viability, T/C (second compound 10 µM, first compound 0.0316 µM) was 63.9%, the viability, T/C (second compound 10 µM, first compound 0.1 µM) was 83.7% and the viability, T/C (second compound 10 µM, first compound 0.316 µM) was 70%. For the same compound, the viability, T/C (second compound 10 µM, first compound 1 µM) was 70.6%, the viability, T/C (second compound 10 µM, first compound 3.16 µM) was 92.3% and the viability, T/C (second compound 10 µM, first compound 10 µM) was 77.4%.
Compound Cn1cnc2c(F)c(Nc3ccc(Br)cc3Cl)c(C(=O)NOCCO)cc21 + CC(Nc1ncnc2nc[nH]c12)c1cc2cccc(Cl)c2c(=O)n1-c1ccccc1 has an IC50 (second compound 0.0316 µM) of 1460 nM, an IC50 (second compound 0.1 µM) of 2110 nM and an IC50 (second compound 0.316 µM) of 1920 nM. For the same compound, the IC50 (second compound 1 µM) was 1330 nM, the IC50 (second compound 3.16 µM) was 1340 nM and the IC50 (second compound 10 µM) was 666 nM. The viability, T/C (second compound 0.0316 µM, first compound 0.00949 µM) was 73.5%, the viability, T/C (second compound 0.0316 µM, first compound 0.03 µM) was 112% and the viability, T/C (second compound 0.0316 µM, first compound 0.0949 µM) was 95.4%. It also gave a viability, T/C (second compound 0.0316 µM, first compound 0.3 µM) of 75.5%, a viability, T/C (second compound 0.0316 µM, first compound 0.949 µM) of 61.4% and a viability, T/C (second compound 0.0316 µM, first compound 3 µM) of 34.5%. It also gave a viability, T/C (second compound 0.1 µM, first compound 0.00949 µM) of 106%, a viability, T/C (second compound 0.1 µM, first compound 0.03 µM) of 107% and a viability, T/C (second compound 0.1 µM, first compound 0.0949 µM) of 87.5%. For the same compound, the viability, T/C (second compound 0.1 µM, first compound 0.3 µM) was 102%, the viability, T/C (second compound 0.1 µM, first compound 0.949 µM) was 74.7% and the viability, T/C (second compound 0.1 µM, first compound 3 µM) was 38.5%. It also gave a viability, T/C (second compound 0.316 µM, first compound 0.00949 µM) of 78.8%, a viability, T/C (second compound 0.316 µM, first compound 0.03 µM) of 104% and a viability, T/C (second compound 0.316 µM, first compound 0.0949 µM) of 97.9%. It also gave a viability, T/C (second compound 0.316 µM, first compound 0.3 µM) of 78.3%, a viability, T/C (second compound 0.316 µM, first compound 0.949 µM) of 61.9% and a viability, T/C (second compound 0.316 µM, first compound 3 µM) of 43%. It also gave a viability, T/C (second compound 1 µM, first compound 0.00949 µM) of 97.1%, a viability, T/C (second compound 1 µM, first compound 0.03 µM) of 97.4% and a viability, T/C (second compound 1 µM, first compound 0.0949 µM) of 90.1%. The viability, T/C (second compound 1 µM, first compound 0.3 µM) was 78.1%, the viability, T/C (second compound 1 µM, first compound 0.949 µM) was 64.5% and the viability, T/C (second compound 1 µM, first compound 3 µM) was 21.1%. The viability, T/C (second compound 3.16 µM, first compound 0.00949 µM) was 82%, the viability, T/C (second compound 3.16 µM, first compound 0.03 µM) was 83.6% and the viability, T/C (second compound 3.16 µM, first compound 0.0949 µM) was 70.7%. The viability, T/C (second compound 3.16 µM, first compound 0.3 µM) was 97%, the viability, T/C (second compound 3.16 µM, first compound 0.949 µM) was 61.6% and the viability, T/C (second compound 3.16 µM, first compound 3 µM) was 22.6%. For the same compound, the viability, T/C (second compound 10 µM, first compound 0.00949 µM) was 78.4%, the viability, T/C (second compound 10 µM, first compound 0.03 µM) was 64.3% and the viability, T/C (second compound 10 µM, first compound 0.0949 µM) was 69.2%. For the same compound, the viability, T/C (second compound 10 µM, first compound 0.3 µM) was 66%, the viability, T/C (second compound 10 µM, first compound 0.949 µM) was 43.1% and the viability, T/C (second compound 10 µM, first compound 3 µM) was 13.7%.
